Assay results taken from patent US20210387966A1, “2-AMINO-N-HETEROARYL-NICOTINAMIDES AS NAV1.8 INHIBITORS” (Merck Sharp & Dohme Corp., priority 2018, published 2021).

Molecular target: T1, human Nav1.8 channels (Homo sapiens, UniProt Q9Y5Y9)
T1 construct: expressed in transfected cells
Assay: Nav1.8 Qube automated patch-clamp assay
Assay type: cell-based
Conditions: human Nav1.8 stably expressed in HEK 293 cells; whole-cell voltage clamp, room temperature; resting or inactivated state not specified; read-out: IC50 values (nM) for Examples in the Nav1.8 Qube Assay
Method: Compounds were tested on human Nav1.8 and Nav1.5 channels stably expressed in human embryo kidney (HEK) 293 cells. Sodium current measurements on Qube® were conducted as follows: automated 384-well patch-clamp assays on the Qube® platform (Sophion Biosciences) were used to measure the inhibition of sodium flow through human Nav1.8 and Nav1.5 channels. Whole-cell voltage-clamp recordings were performed in QChips® (Sophion Biosciences) at room temperature. Nav1.8 current measurements on Qube® were obtained as follows: Nav1.8 currents were elicited with a 10 second 1 Hertz (Hz) pulse train from a holding potential of −90 millivolts (mV), delivered to the cells once per minute in the control condition (DMSO only) and after compound addition. The 1 hertz pulse train stimulation consisted of ten test pulses to 10 millivolt (mV) for 20 milliseconds (ms), each of which was followed by a 980 millisecond repolarization to −67 millivolts. At the end of the 10 second pulse train stimulation, a second hyperpolarization step to −100 millivolt (mV) was used to recover Nav1.8 from fast inactivation. The peak currents elicited by the 1st and 10th test pulses were used to determine IC50 values for resting inhibition and inactivated state inhibition. Nav1.5 current measurements on Qube® were obtained as follows: Nav1.5 currents were elicited with a 20 second 3 Hertz pulse train in the control condition (DMSO only) and after compound addition. The pulse train consisted of sixty 20 millisecond test pulses to 0 millivolt from a holding potential of −80 millivolt (mV). The average peak currents elicited by the last 3 test pulses were used to determine IC50 values for Nav1.5 inhibition.
The following buffers were used for the Qube® recordings: External buffer for Nav1.8 Qube® recording: 150 NaCl, 2 CaCl2, 5 KCl, 1 Mg Cl2, 10 HEPES, 12 Dextrose; External buffer for Qube® Nav1.5 recording: 120 N-Methyl-D-Glucamine, 40 NaCl, 1 KCl, 2.7 CaCl2, 5 HEPES, 0.5 MgCl2: and Internal buffer for Qube® recording: 120 CsF, 30 CsCl, 10 EGTA, 5 HEPES, 5 NaF, 2 MgCl2.
For all Qube® experiments offline analysis was used to determine percent inhibition as a function of drug concentration. IC50 values were determined by fitting to the Hill equation.

T1 sequence (Q9Y5Y9 whole entry): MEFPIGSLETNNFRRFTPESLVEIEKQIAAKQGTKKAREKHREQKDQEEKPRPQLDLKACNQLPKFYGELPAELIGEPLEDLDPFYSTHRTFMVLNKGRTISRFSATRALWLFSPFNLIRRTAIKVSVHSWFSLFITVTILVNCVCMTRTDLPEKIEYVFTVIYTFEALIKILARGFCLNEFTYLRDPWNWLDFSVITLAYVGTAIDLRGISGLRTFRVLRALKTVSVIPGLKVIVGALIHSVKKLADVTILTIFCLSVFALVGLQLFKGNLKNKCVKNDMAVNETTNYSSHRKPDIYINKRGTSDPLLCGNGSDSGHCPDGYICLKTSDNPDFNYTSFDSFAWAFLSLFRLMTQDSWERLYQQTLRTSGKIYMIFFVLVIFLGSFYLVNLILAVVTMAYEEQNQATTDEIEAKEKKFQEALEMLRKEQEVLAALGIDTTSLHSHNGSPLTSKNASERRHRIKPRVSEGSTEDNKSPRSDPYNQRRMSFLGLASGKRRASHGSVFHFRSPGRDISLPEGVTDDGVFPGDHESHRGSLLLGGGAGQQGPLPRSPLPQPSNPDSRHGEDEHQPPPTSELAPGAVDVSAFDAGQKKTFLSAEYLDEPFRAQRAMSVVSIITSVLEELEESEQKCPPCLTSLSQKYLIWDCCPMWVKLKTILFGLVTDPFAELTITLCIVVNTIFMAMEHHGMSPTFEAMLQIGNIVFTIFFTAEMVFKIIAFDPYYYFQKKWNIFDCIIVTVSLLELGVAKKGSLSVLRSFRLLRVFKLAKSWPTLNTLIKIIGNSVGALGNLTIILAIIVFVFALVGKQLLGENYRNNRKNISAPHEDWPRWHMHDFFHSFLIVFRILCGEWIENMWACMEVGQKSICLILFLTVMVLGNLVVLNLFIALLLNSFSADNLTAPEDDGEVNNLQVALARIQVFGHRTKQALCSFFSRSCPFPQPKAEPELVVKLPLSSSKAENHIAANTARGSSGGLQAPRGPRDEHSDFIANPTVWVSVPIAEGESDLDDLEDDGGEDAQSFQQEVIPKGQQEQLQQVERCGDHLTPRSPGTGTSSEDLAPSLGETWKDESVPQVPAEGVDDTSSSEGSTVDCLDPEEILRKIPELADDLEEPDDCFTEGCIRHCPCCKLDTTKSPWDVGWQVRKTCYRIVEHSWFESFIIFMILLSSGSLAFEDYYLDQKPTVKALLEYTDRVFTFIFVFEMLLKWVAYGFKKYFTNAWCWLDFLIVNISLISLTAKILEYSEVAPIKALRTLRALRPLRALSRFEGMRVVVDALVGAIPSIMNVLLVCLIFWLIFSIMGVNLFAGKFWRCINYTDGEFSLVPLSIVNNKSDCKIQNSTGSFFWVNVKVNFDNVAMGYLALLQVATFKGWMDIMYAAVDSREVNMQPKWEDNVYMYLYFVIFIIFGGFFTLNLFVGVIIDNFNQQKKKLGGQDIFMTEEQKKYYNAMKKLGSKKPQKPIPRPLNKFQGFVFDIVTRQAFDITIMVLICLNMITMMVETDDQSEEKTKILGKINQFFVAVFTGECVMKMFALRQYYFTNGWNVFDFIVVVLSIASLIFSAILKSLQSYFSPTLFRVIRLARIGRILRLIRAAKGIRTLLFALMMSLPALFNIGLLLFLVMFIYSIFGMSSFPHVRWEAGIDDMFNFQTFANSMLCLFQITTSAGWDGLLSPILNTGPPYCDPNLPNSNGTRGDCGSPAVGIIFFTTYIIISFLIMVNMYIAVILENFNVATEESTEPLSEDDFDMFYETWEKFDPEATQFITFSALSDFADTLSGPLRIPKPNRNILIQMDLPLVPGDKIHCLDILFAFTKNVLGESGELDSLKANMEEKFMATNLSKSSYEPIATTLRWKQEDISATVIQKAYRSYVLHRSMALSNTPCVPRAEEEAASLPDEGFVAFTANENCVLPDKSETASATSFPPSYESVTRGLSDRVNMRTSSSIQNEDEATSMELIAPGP

| SMILES | IC50 [nM] |
| --- | --- |
| C[C@H]1CN(c2ncc(C(F)(F)F)cc2C(=O)Nc2ccnc(S(N)(=O)=O)c2)CCC1(F)F (single isomer, unassigned) [Example 47] | 3.9 |
| C[C@@H]1CN(c2ncc(C(F)(F)F)cc2C(=O)Nc2ccnc(S(N)(=O)=O)c2)CCC1(F)F (single isomer, unassigned) [Example 48] | 12 |
| CC1CN(c2ncc(C(F)(F)F)cc2C(=O)Nc2ccnc(S(N)(=O)=O)c2)CCC1(Cl)Cl (single isomer, unassigned) [Example 50, (S or R)-2-(4,4-dichloro-3-methylpiperidin-1-yl)-N-(2-sulfamoylpyridin-4-yl)-5-(trifluoromethyl)nicotinamide] | 14 |
| CC1CCCN(c2ncc(C(F)(F)F)cc2C(=O)Nc2ccnc(S(N)(=O)=O)c2)C1 (single isomer, unassigned) [Example 57, (R or S)-2-(3-methylpiperidin-1-yl)-N-(2-sulfamoylpyridin-4-yl)-5-(trifluoromethyl)nicotinamide] | 31 |
| NS(=O)(=O)c1cc(NC(=O)c2cc(C(F)(F)F)cnc2N2CC3CCC3(C(F)(F)F)C2)ccn1 (single isomer, unassigned) [Example 58, N-(2-sulfamoyl-4-pyridyl)-5-(trifluoromethyl)-2-[(1S,5S or 1R,5R)-1-(trifluoromethyl)-3-azabicyclo[3.2.0]heptan-3-yl]pyridin-3-carboxamide] | 10 |
| CC12CCN(c3ncc(C(F)(F)F)cc3C(=O)Nc3ccnc(S(N)(=O)=O)c3)CC1C2(F)F (single isomer, unassigned) [Example 62, 2-[(1R,6R or 1S,6S)-7,7-difluoro-6-methyl-3-azabicyclo[4.1.0]heptan-3-yl]-N-(2-sulfamoyl-4-pyridyl)-5-(trifluoromethyl)pyridine-3-carboxamide] | 105 |
| NS(=O)(=O)c1cc(NC(=O)c2cc(C(F)(F)F)cnc2N2CCC3C(C2)C3(F)F)ccn1 (single isomer, unassigned) [Example 70, 2-((1R,6R or 1S,6S)-7,7-difluoro-3-azabicyclo[4.1.0]heptan-3-yl)-N-(2-sulfamoylpyridin-4-yl)-5-(trifluoromethyl)nicotinamide] | 41 |
| NS(=O)(=O)c1cc(NC(=O)c2cc(C(F)(F)F)cnc2N2CC3CC2CC3(F)F)ccn1 (single isomer, unassigned) [Example 72, 2-[(1S,4S or 1R,4R)-5,5-difluoro-2-azabicyclo[2.2.1]heptan-2-yl]-N-(2-sulfamoyl-4-pyridyl)-5-(trifluoromethyl)pyridine-3-carboxamide] | 714 |
| CC1CC(F)(F)CCN1c1ncc(C(F)(F)F)cc1C(=O)Nc1ccnc(S(N)(=O)=O)c1 (single isomer, unassigned) [Example 74, (S or R)-2-(4,4-difluoro-2-methylpiperidin-1-yl)-N-(2-sulfamoylpyridin-4-yl)-5-(trifluoromethyl)nicotinamide] | 319 |
| Cc1nc(N2CCOC(C(F)F)CC2)c(C(=O)Nc2ccnc(S(N)(=O)=O)c2)cc1Cl (single isomer, unassigned) [Example 116, 5-chloro-2-[(7R or 7S)-7-(difluoromethyl)-1,4-oxazepan-4-yl]-6-methyl-N-(2-sulfamoylpyridin-4-yl)pyridine-3-carboxamide] | 32 |
| Cc1nc(N2CCOC(C(F)F)CC2)c(C(=O)Nc2ccnc(S(N)(=O)=O)c2)cc1Cl (single isomer, unassigned) [Example 117, 5-chloro-2-[(7S or 7R)-7-(difluoromethyl)-1,4-oxazepan-4-yl]-6-methyl-N-(2-sulfamoylpyridin-4-yl)pyridine-3-carboxamide] | 18 |
| NS(=O)(=O)c1cc(NC(=O)c2cc(C(F)(F)F)cnc2N2CCOC(C(F)(F)F)CC2)ccn1 (single isomer, unassigned) [Example 118, (R or S)-N-(2-sulfamoylpyridin-4-yl)-5-(trifluoromethyl)-2-(7-(trifluoromethyl)-1,4-oxazepan-4-yl)nicotinamide] | 54 |

Further compounds by falling IC50, results first:

| IC50 [nM] | SMILES |
| --- | --- |
| 225 | CC1CC(F)(F)CCN1c1ncc(C(F)(F)F)cc1C(=O)Nc1ccnc(S(N)(=O)=O)c1 (single isomer, unassigned) [Example 73, (R or S)-2-(4,4-difluoro-2-methylpiperidin-1-yl)-N-(2-sulfamoylpyridin-4-yl)-5-(trifluoromethyl)nicotinamide] |
| 116 | NS(=O)(=O)c1cc(NC(=O)c2cc(C(F)(F)F)cnc2N2CC3CCC3(C(F)(F)F)C2)ccn1 (single isomer, unassigned) [Example 59, N-(2-sulfamoyl-4-pyridyl)-5-(trifluoromethyl)-2-[(1R,5R or 1S,5S)-1-(trifluoromethyl)-3-azabicyclo[3.2.0]heptan-3-yl]pyridine-3-carboxamide] |
| 94 | NS(=O)(=O)c1cc(NC(=O)c2cc(C(F)(F)F)cnc2N2CC3CC(F)(F)C3C2)ccn1 (single isomer, unassigned) [Example 65, 2-((1S,5R or 1R,5S)-6,6-difluoro-3-azabicyclo[3.2.0]heptan-3-yl)-N-(2-sulfamoylpyridin-4-yl)-5-(trifluoromethyl)nicotinamide] |
| 88 | NS(=O)(=O)c1cc(NC(=O)c2cc(C(F)(F)F)cnc2N2CCCC3(C2)CC3(F)F)ccn1 (single isomer, unassigned) [Example 66, (R of S)-2-(1,1-difluoro-5-azaspiro[2.5]octan-5-yl)-N-(2-sulfamoylpyridin-4-yl)-5-(trifluoromethyl)nicotinamide] |
| 82 | NS(=O)(=O)c1cc(NC(=O)c2cc(C(F)(F)F)cnc2N2CCC3C(C2)C3(F)F)ccn1 (single isomer, unassigned) [Example 69, 2-((1S,6S or 1R,6R)-7,7-difluoro-3-azabicyclo[4.1.0]heptan-3-yl)-N-(2-sulfamoylpyridin-4-yl)-5-(trifluoromethyl)nicotinamide] |
| 60 | NS(=O)(=O)c1cc(NC(=O)c2cc(C(F)(F)F)cnc2N2CC3CC2CC3(F)F)ccn1 (single isomer, unassigned) [Example 71, 2-[(1R,4R or 1S,4S)-5,5-difluoro-2-azabicyclo[2.2.1]heptan-2-yl]-N-(2-sulfamoyl-4-pyridyl)-5-(trifluoromethyl)pyridine-3-carboxamide] |
| 25 | NS(=O)(=O)c1cc(NC(=O)c2cc(C(F)(F)F)cnc2N2CCCC3(C2)CC3(F)F)ccn1 (single isomer, unassigned) [Example 67, (S or R)-2-(1,1-difluoro-5-azaspiro[2.5]octan-5-yl)-N-(2-sulfamoylpyridin-4-yl)-5-(trifluoromethyl)nicotinamide] |
| 23 | NS(=O)(=O)c1cc(NC(=O)c2cc(C(F)(F)F)cnc2N2CC3CC(F)(F)C3C2)ccn1 (single isomer, unassigned) [Example 64, 2-((1R,2S or 1S,5R)-6,6-difluoro-3-azabicyclo[3.2.0]heptan-3-yl)-N-(2-sulfamoylpyridin-4-yl)-5-(trifluoromethyl)nicotinamide] |
| 15 | CC12CCN(c3ncc(C(F)(F)F)cc3C(=O)Nc3ccnc(S(N)(=O)=O)c3)CC1C2(F)F (single isomer, unassigned) [Example 61, 2-[(1S,6S or 1R,6R)-7,7-difluoro-6-methyl-3-azabicyclo[4.1.0]heptan-3-yl]-N-(2-sulfamoyl-4-pyridyl)-5-(trifluoromethyl)pyridine-3-carboxamide] |
| 9.1 | CC1CCCN(c2ncc(C(F)(F)F)cc2C(=O)Nc2ccnc(S(N)(=O)=O)c2)C1 (single isomer, unassigned) [Example 56, (S or R)-2-(3-methylpiperidin-1-yl)-N-(2-sulfamoylpyridin-4-yl)-5-(trifluoromethyl)nicotinamide] |
| 2.1 | Cc1nc(N2CCC(F)(F)C(C)C2)c(C(=O)Nc2ccnc(S(N)(=O)=O)c2)cc1Cl (single isomer, unassigned) [Example 54, (S or R)-5-chloro-2-(4,4-difluoro-3-methylpiperidin-1-yl)-6-methyl-N-(2-sulfamoylpyridin-4-yl)nicotinamide] |
| 1.4 | CC1CN(c2ncc(C(F)(F)F)cc2C(=O)Nc2ccnc(S(N)(=O)=O)c2)CCC1(Cl)Cl (single isomer, unassigned) [Example 49, (R or S)-2-(4,4-dichloro-3-methylpiperidin-1-yl)-N-(2-sulfamoylpyridin-4-yl)-5-(trifluoromethy)nicotinamide] |
| 1.4 | Cc1nc(N2CCC(F)(F)C(C)C2)c(C(=O)Nc2ccnc(S(N)(=O)=O)c2)cc1Cl (single isomer, unassigned) [Example 55, (S or R)-5-chloro-2-(4,4-difluoro-3-methylpiperidin-1-yl)-6-methyl-N-(2-sulfamoylpyridin-4-yl)nicotinamide] |
